Assay: Acute toxicity in mice
Type: in vivo
Settings: for LD50: mouse, in vivo, po
Procedure: Animals: Hybrid swiss strain mice (provided by Animal House of Institute of Chinese Mateia Media, China Academy of Traditional Chinese Medicine), 20-22 grams, less than 6 weeks age of both sexes fed in laboretory for 3-5 days observation and a random taking food and drinking.
Drugs: Dihydroqinghaosu-methylcarbamate and dihydroqinghaosu-benzenecarbamate.
Above two drugs in powder form were dissolved into peanut oil. The biggest dose were 2000 mg/kg and 2161 mg/kg respectively. The distances between two dose groups were 0.7 and 0.68 respectively, with 5 dose groups each drugs.
Method: The mice were given single dose of above compound respectively intragastrically, the acute intoxication manifestrations were observed the LD value (LD5, LD50 and LD95) and B value were determined by three days mortality.

[1] = F + M, single dose intragastrically
[2] = F, single dose intragastrically
[3] = M, single dose intragastrically

CNC(=O)OC1OC2OC3(C)CCC4C(C)CCC(C1C)C24OO3 (stereo not shown) [Dihydroqinghaosu-methylcarbamate, Dihydroqinghaosu-Methylcarbamate]
Death distribution of mice, exp./death (462 mg/kg, female): 5/0 | Death distribution of mice, exp./death (462 mg/kg, female + male): 10/1 | Death distribution of mice, exp./death (462 mg/kg, male): 5/1 | Death distribution of mice, exp./death (680 mg/kg, female): 5/2 | Death distribution of mice, exp./death (680 mg/kg, female + male): 10/2 | Death distribution of mice, exp./death (680 mg/kg, male): 5/1 | Death distribution of mice, exp./death (1000 mg/kg, female): 5/2 | Death distribution of mice, exp./death (1000 mg/kg, female + male): 10/4 | Death distribution of mice, exp./death (1000 mg/kg, male): 5/2 | Death distribution of mice, exp./death (1470 mg/kg, female): 5/2 | Death distribution of mice, exp./death (1470 mg/kg, female + male): 10/5 | Death distribution of mice, exp./death (1470 mg/kg, male): 5/3 | Death distribution of mice, exp./death (2161 mg/kg, female): 5/5 | Death distribution of mice, exp./death (2161 mg/kg, female + male): 10/10 | Death distribution of mice, exp./death (2161 mg/kg, male): 5/5 | LD5 [1]: 435.75 mg/kg | LD95 [1]: 2883.02 mg/kg | slope (B) [1]: 4.01 | LD5 [2]: 543.17 mg/kg | LD95 [2]: 2711.67 mg/kg | slope (B) [2]: 4.711 | LD5 [3]: 360.92 mg/kg | LD95 [3]: 2932.84 mg/kg | slope (B) [3]: 3.620 | LD50 [1]: 1120 mg/kg | LD50 [2]: 1210 mg/kg | LD50 (P.O. (per os)): 1120 mg/kg | LD50 (single dose intragastrically): 1030 mg/kg

Reference: patent US5726203A, “Qinghaosu derivatives against AIDS” (priority 1993, dated 1998)
